Measurements as given in US20230149418A1, “METHODS AND SYNERGIC COMPOSITIONS FOR TREATING VIRAL INFECTIONS” (HADASIT MEDICAL RESEARCH SERVICES AND DEVELOPMENT LTD., priority 2018, published 2023).
Read-outs that look alike come from different tables or passages of the source. Blank lines part the entries; values can stand above or below the molecule they belong to.

Experiments:
[1] = test system: HCMV TB40/E strain; experiment: Plaque reduction assay, HCMV TB40/E strain in human foreskin fibroblasts, single drugs and 2-drug combinations (Chou-Talalay); format: cell-based, human cytomegalovirus; details: for Dose of drug alone at Fa 0.75: Fa 0.75, drug alone; for Dose of drug alone at Fa 0.9: Fa 0.9, drug alone; for Dose of drug alone at Fa 0.95: Fa 0.95, drug alone; for Dose of drug alone at Fa 0.97: Fa 0.97, drug alone; for Dose of drug alone at Fa 0.05: Fa (fraction of virus affected) 0.05, drug alone
Method: The CMV strain used was TB40/E. The CMV strain was propagated and tittered in human foreskin fibroblasts (HFF) cells. Cell-free virus stocks and cell-associated clinical isolates were maintained at -70° C. Viral stocks were tittered by serial 10-fold dilution in 24-well tissue culture plates containing HFF monolayers overlaid with agarose-medium. After incubation for 7 to 14 days, plaques were enumerated, and virus titer was determined as plaque forming units (PFU) per milliliter (ml). Stocks of artemisone (10 mM), ganciclovir (10 mM), BDCRB (120 mM), brincidofovir (1 mM), maribavir (10 mM) and letermovir (10 mM) were prepared in DMSO or H2O.
Cell monolayers were inoculated in 24-well culture plates with 0.2 ml of virus suspension containing 60 to 100 PFU per well. After adsorption for 60 -120 min at 37° C., the inoculum was removed, and culture medium was replaced with agarose-medium overlay containing serial concentrations of the tested drug(s). Plates were incubated for 7-14 days at 37° C. in a 5% CO2 incubator. Plaques were then counted microscopically.
The effect of a combination of artemisone with each one of ganciclovir (HCMV DNA polymerase), BDCRB (HCMV terminase inhibitor), brincidofovir (HCMV DNA polymerase inhibitor), maribavir (HCMV UL97 kinase inhibitor) and letermovir (HCMV terminase inhibitor) was evaluated by the classical plaque reduction assay. The in vitro activity of each of the above mentioned antiviral compounds alone or in combination with artemisone was evaluated by the classical plaque reduction assay, using HCMV TB40/E strain in human foreskin fibroblasts cells. The concentration of each antiviral compound that reduced the plaque formation by 50% (EC50) was determined as previously described in Wolf DG et al., J Clin Invest. 1995;95:257-63. The individual EC50 values in human foreskin fibroblasts were as follows: artemisone EC50 - 1 µM; ganciclovir EC50 - 1 µM; maribavir EC50 - 1 µM; BDCRB EC50 - 0.5 µM; letermovir EC50 - 5 nM; brincidofovir EC50 -1 nM.
For the 2-drug combination studies, the EC50 value of each drug was used to determine an equipotent ratio between the two compounds (EC50 of drug 1 / EC50 of drug 2). Serial 2-fold dilutions of a mixture comprising artemisone and another antiviral compound at initial concentrations equivalent to 4-fold the equipotent ratio were added to duplicate wells of cells infected with HCMV. Overall, 5 different concentrations of the drug combinations were used: 4xEC50, 2xEC50, 1xEC50,0.5xEC50,0.25xEC50. The cell monolayers were inoculated in 24-well culture plates with 0.2 ml of virus suspension containing 60 to 100 plaque-forming unit (PFU) per well; the Multiplicity of infection (MOI) was 0.001-0.002 PFU/cell).
D1 and D2 are the doses of the two drugs, and Dx is a dose causing to x% effect (LD0.5 is EC50). Briefly, the software extrapolated a combination index (CI) representing the interaction between the two drugs at specified levels of virus inhibition (that is 50%, 75%, 90%, 95%) versus the percentages of the inhibition induced by each drug alone and in combination (equation 16 in Chou).
A weighted average CI (CIwt) was then calculated for each combination as (CI50+ 2×CI75+3×CI90+4×CI95)/10, to access the drug combinatory effects.
The dose reduction index (DRI) was then calculated as described in Chou. In general, the DRI measures the fold of dose reduction of each drug in the combination at a given effect level compared with the doses of each drug alone. For each one of the below tables: Fa - fraction of virus affected; doses are provided in µm.

[2] = test system: HCMV; experiment: Ex vivo HCMV infection of human decidual (placental) tissue organ cultures, viral mRNA copy number; format: cell-based, human cytomegalovirus; details: for EC50: Human betaherpesvirus 5; for Dose of drug alone at Fa 0.9: Fa 0.9, drug alone; for DRI (dose reduction index): combination artemisone + maribavir
Method: Organ cultures were washed and stored at -80° C. until assayed. RNA was extracted, and the purified RNA samples were subjected to reverse transcription (RT), followed by quantitative real-time PCR. The viral mRNA copy number was normalized by the cellular housekeeping gene β-actin.
We employed our model of HCMV infection in human decidual tissues (representing the maternal aspect of the chimeric human placenta), maintained as multi-cell-type 3D organ cultures as described in Weisblum Y. et al. J Virol 2011 85(24): 13204-13. doi: 10.1128/JVI.05749-11. For infection of the organ cultures, decidual tissues were placed in 48-well plates and inoculated with the virus (5x10^4 plaque forming units (PFU)/well) for 12 h to allow effective viral adsorption. The tissues were further monitored for viral infection and spread for 7 days. For determination of the drug EC50 values of in the tissues, serial drug concentrations: each drug separately or combination of the drugs were added to the infected decidual tissues during viral adsorption at any further medium replacement to keep the drug concentration constant. The results were compared to samples to which the drug was not added. The EC50 was defined as the drug concentration required to reduce the viral mRNA copy number by 50%. The effect of drug combinations was tested in accordance with the Chou-Talalay method. All comparative experiments were performed in parallel on tissues from the same donor.
The dose reduction index (DRI) was then calculated as described in Chou. As described earlier, the DRI is a measure of how many folds the dose of each drug in a synergistic combination may be reduced at a given effect level compared with the doses of each drug alone. For each one of the below tables: Fa - fraction of virus affected; doses are provided in µm.

[3] = Human betaherpesvirus 5, Fibroblast, drug alone, human foreskin fibroblasts, read-out: EC50 (concentration that reduced the plaque formation by 50%)
[4] = Human betaherpesvirus 5, Fibroblast, Fa 0.5, drug alone, read-out: Dose of drug alone at Fa 0.5

Molecule: OC[C@H]1O[C@@H](n2c(Br)nc3cc(Cl)c(Cl)cc32)[C@H](O)[C@@H]1O [BDCRB, 2-bromo-5,6-dichloro-1-beta-D-ribofuranosyl benzimidazole]
EC50 [1, 3]: 500 nM

Molecule: Nc1ccn(C[C@@H](CO)OCP(=O)(O)O)c(=O)n1 [cidofovir]
Dose of drug alone at Fa 0.75 [1]: 0.646 µm
Dose of drug alone at Fa 0.9 [1]: 1.148 µm
Dose of drug alone at Fa 0.95 [1]: 1.698 µm
Dose of drug alone at Fa 0.97 [1]: 2.242 µm
Dose of drug alone at Fa 0.05 [1]: 0.07783 µm
EC50 [1, 4]: 364 nM
DRI (dose reduction index) ([1]; combination artemisone + cidofovir, Fa 0.05): 1.038
DRI (dose reduction index) ([1]; combination artemisone + cidofovir, Fa 0.5): 1.757
DRI (dose reduction index) ([1]; combination artemisone + cidofovir, Fa 0.75): 2.139
DRI (dose reduction index) ([1]; combination artemisone + cidofovir, Fa 0.9): 2.6
DRI (dose reduction index) ([1]; combination artemisone + cidofovir, Fa 0.9, listed as CDV): 2.603
DRI (dose reduction index) ([1]; combination artemisone + cidofovir, Fa 0.95): 2.975
DRI (dose reduction index) ([1]; combination artemisone + cidofovir, Fa 0.97): up to 3.27
DRI (dose reduction index) ([1]; combination artemisone + cidofovir, Fa 0.97, listed as CDV): 3.271

Molecule: Nc1nc2c(ncn2COC(CO)CO)c(=O)[nH]1 [ganciclovir]
Dose of drug alone at Fa 0.75 [1]: 1.113 µm
Dose of drug alone at Fa 0.9 [1]: 2.12 µm
Dose of drug alone at Fa 0.9 ([1]; listed as GCV): 2.121 µm
Dose of drug alone at Fa 0.95 [1]: 3.287 µm
Dose of drug alone at Fa 0.97 [1]: 4.491 µm
Dose of drug alone at Fa 0.05 [1]: 0.1039 µm
EC50 [1, 4]: 584 nM
EC50 [1, 3]: 1000 nM
DRI (dose reduction index) ([1]; combination artemisone + ganciclovir, Fa 0.05): 1.342
DRI (dose reduction index) ([1]; combination artemisone + ganciclovir, Fa 0.5): 1.673
DRI (dose reduction index) ([1]; combination artemisone + ganciclovir, Fa 0.75): 1.817
DRI (dose reduction index) ([1]; combination artemisone + ganciclovir, Fa 0.9, listed as GCV): 1.973
DRI (dose reduction index) ([1]; combination artemisone + ganciclovir, Fa 0.95): 2.09
DRI (dose reduction index) ([1]; combination artemisone + ganciclovir, Fa 0.95, listed as GCV): 2.086
DRI (dose reduction index) ([1]; combination artemisone + ganciclovir, Fa 0.97): 2.171

Molecule: COc1cccc(N2CCN(C3=Nc4c(F)cccc4[C@H](CC(=O)O)N3c3cc(C(F)(F)F)ccc3OC)CC2)c1 [letermovir]
Dose of drug alone at Fa 0.75 [1]: 0.00438 µm
Dose of drug alone at Fa 0.9 [1]: 0.00952 µm
Dose of drug alone at Fa 0.95 [1]: 0.01614 µm
Dose of drug alone at Fa 0.97 [1]: 0.02351 µm
Dose of drug alone at Fa 0.05 [1]: 2.51E-4 µm
EC50 [1, 4]: 2.01 nM
EC50 [1, 3]: 5 nM
DRI (dose reduction index) ([1]; combination artemisone + letermovir, Fa 0.05): 0.5226
DRI (dose reduction index) ([1]; combination artemisone + letermovir, Fa 0.5): 1.044
DRI (dose reduction index) ([1]; combination artemisone + letermovir, Fa 0.75): 1.351
DRI (dose reduction index) ([1]; combination artemisone + letermovir, Fa 0.9): 1.75
DRI (dose reduction index) ([1]; combination artemisone + letermovir, Fa 0.9, listed as Let): 1.749
DRI (dose reduction index) ([1]; combination artemisone + letermovir, Fa 0.95): 2.084
DRI (dose reduction index) ([1]; combination artemisone + letermovir, Fa 0.97): up to 2.4
DRI (dose reduction index) ([1]; combination artemisone + letermovir, Fa 0.97, listed as Let): 2.362

EC50 ([2]; ex vivo, Fa 0.5, drug alone, read-out: Dose of drug alone at Fa 0.5): 186 nM
EC50 ([2]; sole drug, ex vivo decidual tissues, read-out: EC50 (concentration required to reduce the viral mRNA copy number by 50%)): 250 nM
Molecule: CC(C)Nc1nc2cc(Cl)c(Cl)cc2n1[C@H]1O[C@@H](CO)[C@H](O)[C@@H]1O [maribavir]
Dose of drug alone at Fa 0.05 ([2]; ex vivo, Fa 0.05, drug alone): 0.01861 µm
Dose of drug alone at Fa 0.75 ([2]; ex vivo, Fa 0.75, drug alone): 0.4396 µm
Dose of drug alone at Fa 0.9 ([2]; ex vivo): 1.03 µm
Dose of drug alone at Fa 0.9 ([2]; ex vivo, listed as MBV): 1.038 µm
Dose of drug alone at Fa 0.95 ([2]; ex vivo, Fa 0.95, drug alone): 1.862 µm
Dose of drug alone at Fa 0.97 ([2]; ex vivo, Fa 0.97, drug alone): 2.822 µm
DRI (dose reduction index) ([2]; ex vivo, Fa 0.05): 0.66
DRI (dose reduction index) ([2]; ex vivo, Fa 0.5): 0.982
DRI (dose reduction index) ([2]; ex vivo, Fa 0.75): 1.139
DRI (dose reduction index) ([2]; ex vivo, Fa 0.9): 1.3
DRI (dose reduction index) ([2]; ex vivo, Fa 0.9, listed as MBV): 1.321
DRI (dose reduction index) ([2]; ex vivo, Fa 0.95, listed as MBV): 1.461
DRI (dose reduction index) ([2]; ex vivo, Fa 0.97): 1.57
Dose of drug alone at Fa 0.75 [1]: 0.8994 µm
Dose of drug alone at Fa 0.9 [1]: 3.458 µm
Dose of drug alone at Fa 0.95 [1]: 8.644 µm
Dose of drug alone at Fa 0.97 [1]: 16.5865 µm
Dose of drug alone at Fa 0.05 [1]: 0.00633 µm
EC50 [1, 4]: 234 nM
EC50 [1, 3]: 1000 nM
DRI (dose reduction index) ([1]; combination artemisone + maribavir, Fa 0.05): 2.039
DRI (dose reduction index) ([1]; combination artemisone + maribavir, Fa 0.5): 5.884
DRI (dose reduction index) ([1]; combination artemisone + maribavir, Fa 0.75): 8.738
DRI (dose reduction index) ([1]; combination artemisone + maribavir, Fa 0.9): 12.98
DRI (dose reduction index) ([1]; combination artemisone + maribavir, Fa 0.9, listed as MBV): 12.9771
DRI (dose reduction index) ([1]; combination artemisone + maribavir, Fa 0.95): 16.9821
DRI (dose reduction index) ([1]; combination artemisone + maribavir, Fa 0.97): 20.6
DRI (dose reduction index) ([1]; combination artemisone + maribavir, Fa 0.97, listed as MBV): 20.5640

Molecule: brincidofovir
EC50 ([1]; Fa 0.5, drug alone, read-out: Dose of drug alone at Fa 0.5): 0.649 nM
Dose of drug alone at Fa 0.75 [1]: 0.001 µm
Dose of drug alone at Fa 0.9 [1]: 0.002 µm
Dose of drug alone at Fa 0.95 [1]: 0.002 µm
Dose of drug alone at Fa 0.97 [1]: 0.003 µm
Dose of drug alone at Fa 0.05 [1]: 1.87E-4 µm
DRI (dose reduction index) ([1]; combination artemisone + brincidofovir, Fa 0.05): 1.43
DRI (dose reduction index) ([1]; combination artemisone + brincidofovir, Fa 0.5): 1.48
DRI (dose reduction index) ([1]; combination artemisone + brincidofovir, Fa 0.75): 1.5
DRI (dose reduction index) ([1]; combination artemisone + brincidofovir, Fa 0.9): up to 1.5
DRI (dose reduction index) ([1]; combination artemisone + brincidofovir, Fa 0.9, listed as BCV): 1.52
DRI (dose reduction index) ([1]; combination artemisone + brincidofovir, Fa 0.95): 1.53
DRI (dose reduction index) ([1]; combination artemisone + brincidofovir, Fa 0.97): 1.54
EC50 ([1]; drug alone, human foreskin fibroblasts, read-out: EC50 (concentration that reduced the plaque formation by 50%)): 1 nM
